Assay [1] is filed under the species Rattus norvegicus. The experiment in a line: Dose required in phototherapy for twelve days and palpable tumor detected in 50% of male Fischer CDF (F-344)/CrlBr rats. In kind it is functional.
Assay [2] is filed under the species Rattus norvegicus. The experiment in a line: Dose required in phototherapy for twelve days in tumor size detected in male Fischer CDF (F-344)/CrlBr rats. In kind it is functional.
The species named for assay [3] is Rattus norvegicus. The experiment in a line: Compound evaluated for cytotoxicity in male Fischer CDF (F-344)/CrlBr rats. Format: functional.
For assay [4], the species on record is Rattus norvegicus. The experiment in a line: Dose required in phototherapy for twelve days and free of palpable tumor in 100% of male Fischer CDF (F-344)/CrlBr rats.
For assay [5], the species on record is Rattus norvegicus. The experiment in a line: Dose required in phototherapy for twelve days and 73% control in tumor size in male Fischer CDF (F-344)/CrlBr rats. In kind it is functional.

Regarding `CCC1=C(CC)c2cc3[nH]c(cc4nc(cc5[nH]c(cc1n2)C1=CCC(C(=O)OC)=C(C(=O)OC)C15CC)C(CC)=C4CC)c(CC)c3CC` (stereo unspecified), the Dose in assay [1] is 1 mg/kg. As to `C=Cc1c(C)c2cc3nc(cc4nc(cc5[nH]c(cc1[nH]2)C1(C)C5=CCC(C(=O)OC)=C1C(=O)OC)C(C)=C4CCC(=O)OC)C(CCC(=O)OC)=C3C` (stereo unspecified), the Dose in assay [2] was 5 mg/kg. Turning to `CCC1=C(C)c2cc3[nH]c(cc4[nH]c(cc5nc(cc1n2)C(C)=C5CC)C1(C)C4=CCC(C#N)(C#N)C1(C#N)C#N)c(C)c3CC` (stereo unspecified), in assay [3], the Dose worked out at 1 mg/kg. For `CCC1=C(C)c2cc3[nH]c(cc4nc(cc5[nH]c(cc1n2)C1(C)C5=CCC(C(=O)OC)=C1C(=O)OC)C(C)=C4CC)c(C)c3CC` (stereo unspecified), the Dose in assay [4] came out at 1 mg/kg.

`CCC1=C(CC)c2cc3[nH]c(cc4nc(cc5[nH]c(cc1n2)C1=CCC(C#N)(C#N)C(C#N)(C#N)C15CC)C(CC)=C4CC)c(CC)c3CC` (stereo unspecified) yielded a Dose in assay [3] of 1 mg/kg. `C=Cc1c(C)c2cc3nc(cc4nc(cc5[nH]c(cc1[nH]2)C1(C)C5=CCC(C#N)(C#N)C1(C#N)C#N)C(C)=C4CCC(=O)OC)C(CCC(=O)OC)=C3C` (stereo unspecified) displayed a Dose in assay [5] of 1 mg/kg.

For the origin of these results see ChEMBL document CHEMBL1124750, “Diels-Alder adducts of vinyl porphyrins: synthesis and in vivo photodynamic effect against a rat bladder tumor” (1990).
